Values after ≈ are worked out from the molar mass of the structure shown.
Tests used:
[1] = test system: Escherichia coli; experiment: Antibacterial activity against Escherichia coli; type: functional
[2] = test system: Raoultella planticola; experiment: Antibacterial activity against Klebsiella planticola; type: functional
[3] = test system: Bacillus subtilis; experiment: Antibacterial activity against Bacillus subtilis; type: functional
[4] = test system: Staphylococcus aureus; experiment: Antibacterial activity against Staphylococcus aureus MLS16; type: functional
[5] = test system: Micrococcus luteus; experiment: Antibacterial activity against Micrococcus luteus; type: functional
[6] = test system: Staphylococcus aureus; experiment: Antibacterial activity against Staphylococcus aureus; type: functional
[7] = test system: Pseudomonas aeruginosa; experiment: Antibacterial activity against Pseudomonas aeruginosa; type: functional
[8] = test system: Enterococcus faecalis; experiment: Antibiofilm activity against Enterococcus faecalis; type: functional
[9] = test system: Enterococcus faecalis; experiment: Antibacterial activity against Enterococcus faecalis; type: functional
[10] = test system: Listeria monocytogenes; experiment: Antibacterial activity against Listeria monocytogenes ATCC 19115 after 24 hrs by CLSI protocol based cup-plate agar diffusion method; type: functional
[11] = test system: Staphylococcus aureus; experiment: Antibacterial activity against Staphylococcus aureus ATCC 49444 after 24 hrs by CLSI protocol based cup-plate agar diffusion method; type: functional
[12] = test system: Pseudomonas aeruginosa; experiment: Antibacterial activity against Pseudomonas aeruginosa ATCC 27853 after 24 hrs by CLSI protocol based cup-plate agar diffusion method; type: functional
[13] = test system: Salmonella typhimurium; experiment: Antibacterial activity against Salmonella typhimurium ATCC 14028 after 24 hrs by CLSI protocol based cup-plate agar diffusion method; type: functional, Salmonella enterica subsp. enterica serovar Typhimurium; settings: Salmonella enterica
[14] = test system: Staphylococcus aureus; experiment: Antibacterial activity against Staphylococcus aureus ATCC 6538 by CLSI protocol based microdilution method; type: functional, organism-based
[15] = test system: Staphylococcus aureus; experiment: Antibacterial activity against Staphylococcus aureus ATCC 25923 by CLSI protocol based microdilution method; type: functional, organism-based
[16] = test system: Staphylococcus aureus; experiment: Antibacterial activity against Staphylococcus aureus MTCC 121 after 7 days by two-fold serial dilution method; type: functional; settings: MTCC 121, 168 h, time 7 day
[17] = test system: Pseudomonas aeruginosa; experiment: Antibacterial activity against Pseudomonas aeruginosa MTCC 2453 after 7 days by two-fold serial dilution method; type: functional; settings: MTCC 2453, 168 h, time 7 day
[18] = test system: Bacillus subtilis; experiment: Antibacterial activity against Bacillus subtilis […] after 7 days by two-fold serial dilution method; type: functional; settings: 168 h, time 7 day
[19] = test system: Escherichia coli; experiment: Antibacterial activity against Escherichia coli MTCC 40 after 7 days by two-fold serial dilution method; type: functional; settings: MTCC 40, 168 h, time 7 day
[20] = test system: Escherichia coli; experiment: Antibacterial activity against Escherichia coli AG102; type: functional
[21] = test system: Escherichia coli; experiment: Antibacterial activity against Escherichia coli AG102 in presence of ciprofloxacin; type: functional

O=c1oc2ccc3ccccc3c2cc1-c1csc(N/N=C/c2cn(-c3nc4ccccc4s3)nc2-c2cc3ccccc3oc2=O)n1 gave an MIC [1] of 7.8 µg/mL (≈ 11.7 µM), an MIC [2] of 7.8 µg/mL (≈ 11.7 µM) and an MIC [3] of 15.6 µg/mL (≈ 23.5 µM). It also gave an MIC [4] of 7.8 µg/mL (≈ 11.7 µM), an MIC [5] greater than 125 µg/mL and an MIC [6] of 7.8 µg/mL (≈ 11.7 µM). It also gave an MIC [7] greater than 125 µg/mL.

Compound c1ccc(-c2nc(-c3cccc(-c4nc(-c5cccc6ccccc56)cs4)c3)cs2)cc1 has an MBIC [8] of 0.004 mg/mL and an MIC [9] of 16 µg/mL (≈ 35.8 µM).

Compound Cc1nc(-c2ccccc2)sc1-c1nnc(S)n1/N=C\c1cccs1 has an MIC [10] of 1.9 µg/mL (≈ 4.95 µM), an MIC [11] of 15.6 µg/mL (≈ 40.7 µM) and an MIC [12] of 1.9 µg/mL (≈ 4.95 µM). For the same compound, the MIC [13] was 62.5 µg/mL (≈ 163 µM).

In the case of O=c1oc2c(Br)cc(Br)cc2cc1-c1csc(N/N=C/c2cn(-c3nc4ccccc4s3)nc2-c2cc3ccccc3oc2=O)n1, the MIC [1] is reported as 7.8 µg/mL (≈ 10.1 µM), the MIC [2] is reported as 7.8 µg/mL (≈ 10.1 µM) and the MIC [3] is reported as 3.9 µg/mL (≈ 5.05 µM). The MIC [4] was 7.8 µg/mL (≈ 10.1 µM), the MIC [5] was greater than 125 µg/mL and the MIC [6] was greater than 125 µg/mL. It also gave an MIC [7] greater than 125 µg/mL.

With CC(C)(C)OC(=O)NCCn1cc(-c2nc(-c3c[nH]c4ccccc34)cs2)c2ccccc21 the IC50 [14] was 5.2 µg/mL (≈ 11.3 µM) and the IC50 [15] was 3.9 µg/mL (≈ 8.5 µM).

With O=C(NN1C(=O)/C(=C/c2cccc([N+](=O)[O-])c2)SC1c1ccccc1)c1ccc(-c2ccccc2)cc1 (stereo not given) the MIC [16] was 3.12 µg/mL (≈ 6.15 µM), the MIC [17] was 3.12 µg/mL (≈ 6.15 µM) and the MIC [18] was 1.56 µg/mL (≈ 3.07 µM). The MIC [19] was 6.25 µg/mL (≈ 12.3 µM).

With CCCCOc1ccc(C(=O)Nc2ccc(-c3nc4ccccc4s3)cc2)cc1 the MIC [20] was 64 µg/mL (≈ 159 µM) and the MIC [21] was 0.5 µg/mL.

COc1ccccc1/C=N\n1c(S)nnc1-c1sc(-c2ccccc2)nc1C showed an MIC [10] of 1.9 µg/mL (≈ 4.66 µM), an MIC [11] of 31.2 µg/mL (≈ 76.6 µM) and an MIC [12] of 1.9 µg/mL (≈ 4.66 µM). For the same compound, the MIC [13] was 62.5 µg/mL (≈ 153 µM).

O=C(Nc1ccc(Cc2nc3ccccc3s2)cc1)c1ccc(Br)cc1 was tested, and the MIC [20] was 128 µg/mL (≈ 302 µM) and the MIC [21] was 0.03 µg/mL.

Compound O=C(NN1C(=O)/C(=C/c2cccc([N+](=O)[O-])c2)SC1c1cccc(F)c1)c1ccc(-c2ccccc2)cc1 (stereo not given) has an MIC [16] of 6.25 µg/mL (≈ 11.9 µM), an MIC [17] of 3.12 µg/mL (≈ 5.94 µM) and an MIC [18] of 6.25 µg/mL (≈ 11.9 µM). The MIC [19] was 12.5 µg/mL (≈ 23.8 µM).

In the case of O=C(NN1C(=O)/C(=C/c2cccc(Br)c2)SC1c1ccccc1)c1ccc(-c2ccccc2)cc1 (stereo not given), the MIC [16] is reported as 3.12 µg/mL (≈ 5.76 µM), the MIC [17] is reported as 6.25 µg/mL (≈ 11.5 µM) and the MIC [18] is reported as 6.25 µg/mL (≈ 11.5 µM). The MIC [19] was 12.5 µg/mL (≈ 23.1 µM).

Work on O=C(Cc1ccc(F)cc1)Nc1ccc(Cc2nc3ccccc3s2)cc1 yielded an MIC [20] of 256 µg/mL (≈ 680 µM) and an MIC [21] of 0.03 µg/mL.

COCCn1cc(-c2nc(-c3cn(C)c4ccccc34)cs2)c2cc(OC)ccc21 gave an IC50 [14] of 11.5 µg/mL (≈ 27.5 µM) and an IC50 [15] of 1.2 µg/mL (≈ 2.87 µM).

For COCCn1cc(-c2csc(-c3cn(C(=O)OC(C)(C)C)c4ccccc34)n2)c2ccccc21, the IC50 [14] was 6.9 µg/mL (≈ 14.6 µM) and the IC50 [15] was 1.8 µg/mL (≈ 3.8 µM).

COCCn1cc(-c2csc(-c3cn(CCOC)c4ccc(Br)cc34)n2)c2ccccc21 gave an IC50 [14] of 18.8 µg/mL (≈ 36.8 µM) and an IC50 [15] of 2.9 µg/mL (≈ 5.68 µM).

For COc1ccc(/C=C2\SC(c3cccc(Br)c3)N(NC(=O)c3ccc(-c4ccccc4)cc3)C2=O)cc1 (stereo not given), the MIC [16] was 3.12 µg/mL (≈ 5.46 µM), the MIC [17] was 12.5 µg/mL (≈ 21.9 µM) and the MIC [18] was 1.56 µg/mL (≈ 2.73 µM). For the same compound, the MIC [19] was 1.56 µg/mL (≈ 2.73 µM).

Cc1nc(-c2ccccc2)sc1-c1nnc(S)n1/N=C\c1ccc([N+](=O)[O-])cc1 showed an MIC [10] of 1.9 µg/mL (≈ 4.5 µM), an MIC [11] of 62.5 µg/mL (≈ 148 µM) and an MIC [12] of 1.9 µg/mL (≈ 4.5 µM). For the same compound, the MIC [13] was 62.5 µg/mL (≈ 148 µM).

For CCc1ccc(C(=O)Nc2ccc(Cc3nc4ccccc4s3)cc2)cc1, the MIC [20] was 64 µg/mL (≈ 172 µM) and the MIC [21] was 0.06 µg/mL.

Work on O=C(NN1C(=O)/C(=C/c2ccc(Cl)cc2)SC1c1cccc(Br)c1)c1ccc(-c2ccccc2)cc1 (stereo not given) yielded an MIC [16] of 6.25 µg/mL (≈ 10.9 µM), an MIC [17] of 6.25 µg/mL (≈ 10.9 µM) and an MIC [18] of 6.25 µg/mL (≈ 10.9 µM). It also gave an MIC [19] of 12.5 µg/mL (≈ 21.7 µM).

Cc1nc(-c2ccccc2)sc1-c1nnc(S)n1/N=C\c1ccc(Br)cc1 gave an MIC [10] of 1.9 µg/mL (≈ 4.16 µM), an MIC [11] of 31.2 µg/mL (≈ 68.4 µM) and an MIC [12] of 1.9 µg/mL (≈ 4.16 µM). The MIC [13] was 62.5 µg/mL (≈ 137 µM).

O=C(Nc1ccc(Cc2nc3ccccc3s2)cc1)c1ccccc1 gave an MIC [20] of 256 µg/mL (≈ 743 µM) and an MIC [21] of 0.016 µg/mL.

In the case of O=C(NN1C(=O)/C(=C/c2ccccc2)SC1c1cccc(F)c1)c1ccc(-c2ccccc2)cc1 (stereo not given), the MIC [16] is reported as 6.25 µg/mL (≈ 13 µM), the MIC [17] is reported as 12.5 µg/mL (≈ 26 µM) and the MIC [18] is reported as 3.12 µg/mL (≈ 6.49 µM). For the same compound, the MIC [19] was 6.25 µg/mL (≈ 13 µM).

Compound COCCn1cc(-c2csc(-c3cn(C)c4ccc(Br)cc34)n2)c2ccccc21 has an IC50 [15] of 2.5 µg/mL (≈ 5.36 µM).
